Assay results reported in US9066961B2, “Medicament for LCT poisoning” (JOHANNES GUTENBERG-UN[…], priority 2006, dated 2015).

Columns and labels:
TcdB10463 [1] = molecular target: T1, TcdB10463 (Clostridioides difficile, UniProt P18177); test: In vitro cleavage assay of TcdB10463 after pre-treatment with protease inhibitor EPNP; format: biochemical, Clostridium difficile
T1 construct: the TcdB10463, purified from culture supernate of C. difficile, used in the experiments; purchased tgcBIOMICS, Mainz, Germany; host or cells: Clostridium difficile VPI10463 culture supernatant
Protocol: TcdB10463 was purified as described in Example 1 (D) by means of affinity chromatography with the use of the monoclonal antibody 2CV and then pre-treated either (i) with the protease inhibitor EPNP (10 mM 1,2-epoxy-3-(p-nitrophenoxy)-propane) or (ii)—as control—with buffer (50 mM HEPES, 1M NaCl, 1 mM EDTA, pH 8.0) for 60 minutes at room temperature.
Then an in vitro cleavage assay analogous to Example 1 (A) was carried out. The test batches comprised respectively a volume of 10 μl, and contained respectively 50-100 ng unmarked TcdB10463, 100 μM IP6 and 10 mM tris-HCl pH 8.5. Following the incubation (1 h at room temperature), these test batches were subjected to a SDS-PAGE (10%) and the toxins and toxin fragments were then made visible by means of zinc stain.

TcdB10463 [2] = molecular target: T1, TcdB10463; format: biochemical, Clostridium difficile
TcdB = TcdB (Clostridioides difficile, UniProt P18177); settings: for Start of cell rounding after: CHO cells, TcdB pre-treated with polyclonal antiserum (1:100) 1 h at room temperature; for Neutralising effect of the polyclonal antiserum in the CHO test: antiserum of rabbits immunised with the preparation, dilution 1:100
Protocol: The CHO test was carried out as follows: In a 96 well microtiter plate, CHO cells (=Chinese hamster ovarial cells) were disseminated (5000 cells/well) and incubated for 16 hours under standard conditions (5% CO2, DMEM F12 supplemented with […] L-glutamins, 5% FCS). The toxins were then introduced to the cells after gradual dilution in growth medium. Dilution stages between 10° and 10^−8 were tested. The cells were incubated for 3 hours under standard conditions. Then the proportion of rounded cells was determined microscopically, by several representative sections of the well being photographed and the elongated and the rounded cells being counted. (See also Moos et al., Meth Enzymol. 2000, 325: 114-125. Reference is made here expressly to the content of this publication).
In order to check the neutralising effect of the polyclonal antiserums, firstly TcdB was pre-treated with polyclonal antiserum (dilution stage 1:100) and incubated for 1 h at room temperature. Then the neutralising effect of the antiserums was checked as described in Example 2 with the aid of the CHO test. The measurement for the neutalising effect of the serums was how long the cells were protected from the cytotoxic effect of the TcdB.

T1 sequence (P18177 whole entry): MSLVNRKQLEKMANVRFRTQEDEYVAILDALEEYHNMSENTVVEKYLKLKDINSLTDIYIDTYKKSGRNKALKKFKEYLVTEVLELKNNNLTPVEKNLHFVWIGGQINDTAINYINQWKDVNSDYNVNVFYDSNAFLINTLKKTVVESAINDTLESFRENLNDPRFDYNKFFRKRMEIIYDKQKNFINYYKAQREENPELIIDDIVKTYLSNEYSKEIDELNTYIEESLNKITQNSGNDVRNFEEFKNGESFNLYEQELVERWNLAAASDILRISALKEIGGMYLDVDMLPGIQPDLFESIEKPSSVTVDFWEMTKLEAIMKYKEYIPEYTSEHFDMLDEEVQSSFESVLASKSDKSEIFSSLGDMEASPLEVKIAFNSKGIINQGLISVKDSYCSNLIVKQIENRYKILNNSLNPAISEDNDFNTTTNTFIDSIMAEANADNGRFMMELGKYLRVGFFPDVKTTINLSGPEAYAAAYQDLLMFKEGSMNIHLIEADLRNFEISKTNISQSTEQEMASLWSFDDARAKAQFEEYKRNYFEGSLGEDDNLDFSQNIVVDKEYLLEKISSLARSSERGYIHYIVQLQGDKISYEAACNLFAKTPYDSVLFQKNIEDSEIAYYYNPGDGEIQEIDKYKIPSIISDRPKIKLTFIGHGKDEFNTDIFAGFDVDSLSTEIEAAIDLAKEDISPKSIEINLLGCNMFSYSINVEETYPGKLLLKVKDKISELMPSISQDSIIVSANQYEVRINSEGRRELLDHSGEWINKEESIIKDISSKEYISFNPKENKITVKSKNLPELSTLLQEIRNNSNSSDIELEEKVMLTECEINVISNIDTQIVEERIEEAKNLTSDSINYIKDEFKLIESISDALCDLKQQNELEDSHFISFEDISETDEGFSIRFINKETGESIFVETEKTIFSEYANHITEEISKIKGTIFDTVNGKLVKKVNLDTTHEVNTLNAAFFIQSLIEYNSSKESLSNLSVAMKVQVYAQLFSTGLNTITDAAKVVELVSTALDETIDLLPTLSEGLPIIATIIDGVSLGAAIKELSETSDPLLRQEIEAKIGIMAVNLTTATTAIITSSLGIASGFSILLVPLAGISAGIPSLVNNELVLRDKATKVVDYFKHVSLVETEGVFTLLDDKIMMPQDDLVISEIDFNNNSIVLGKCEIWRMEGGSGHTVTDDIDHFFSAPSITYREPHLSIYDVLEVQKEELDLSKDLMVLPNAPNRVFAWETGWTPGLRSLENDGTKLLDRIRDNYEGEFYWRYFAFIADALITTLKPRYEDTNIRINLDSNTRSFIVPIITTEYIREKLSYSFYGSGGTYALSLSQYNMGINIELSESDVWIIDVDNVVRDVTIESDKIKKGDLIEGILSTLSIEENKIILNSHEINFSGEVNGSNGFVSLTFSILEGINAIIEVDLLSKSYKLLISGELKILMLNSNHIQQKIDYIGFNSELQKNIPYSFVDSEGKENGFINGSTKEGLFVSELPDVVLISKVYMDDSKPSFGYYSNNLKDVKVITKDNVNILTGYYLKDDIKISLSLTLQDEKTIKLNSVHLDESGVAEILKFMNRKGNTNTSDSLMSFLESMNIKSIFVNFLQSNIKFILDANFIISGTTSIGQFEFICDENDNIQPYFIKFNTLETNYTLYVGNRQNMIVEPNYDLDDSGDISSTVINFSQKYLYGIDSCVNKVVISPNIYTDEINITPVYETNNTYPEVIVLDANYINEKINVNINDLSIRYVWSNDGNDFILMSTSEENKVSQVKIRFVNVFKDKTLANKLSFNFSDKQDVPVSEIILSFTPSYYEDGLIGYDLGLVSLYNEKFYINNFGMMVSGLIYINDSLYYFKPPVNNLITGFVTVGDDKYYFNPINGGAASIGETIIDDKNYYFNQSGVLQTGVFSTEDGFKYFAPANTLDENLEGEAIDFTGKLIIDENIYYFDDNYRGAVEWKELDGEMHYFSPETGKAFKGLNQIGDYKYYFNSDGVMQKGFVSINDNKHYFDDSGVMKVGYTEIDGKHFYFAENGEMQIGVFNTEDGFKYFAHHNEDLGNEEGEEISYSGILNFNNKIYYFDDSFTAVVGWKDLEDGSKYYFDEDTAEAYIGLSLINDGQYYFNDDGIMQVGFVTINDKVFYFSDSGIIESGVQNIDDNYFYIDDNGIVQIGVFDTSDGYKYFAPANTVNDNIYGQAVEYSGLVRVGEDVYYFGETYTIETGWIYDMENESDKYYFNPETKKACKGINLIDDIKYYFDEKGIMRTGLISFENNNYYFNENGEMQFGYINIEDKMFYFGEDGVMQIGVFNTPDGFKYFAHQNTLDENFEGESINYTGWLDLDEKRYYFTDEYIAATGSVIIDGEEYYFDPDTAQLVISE
Sequence of TcdB (P18177 whole entry): as above

Molecule	Start of cell rounding after (TcdB)	Neutralising effect of the polyclonal antiserum in the CHO test (TcdB)	also measured
O=[N+]([O-])c1ccc(OCC2CO2)cc1 (centres unmarked) [EPNP, 1,2-epoxy-3-(p-nitrophenoxy)-propane]	–	–	63 kD band in SDS-PAGE (TcdB10463 [1]; TcdB10463 pre-treated with EPNP, after incubation with IP6 (FIG. 2, Line 2)): only weakly formed; Proteolytic activity (protease activity) of TcdB10463 (TcdB10463 [1]; pre-treatment with 10 mM EPNP 60 minutes, then 100 μM IP6 1 h at room temperature): almost completely inhibited
O=P(O)(O)O[C@H]1[C@H](OP(=O)(O)O)[C@@H](OP(=O)(O)O)[C@H](OP(=O)(O)O)[C@@H](OP(=O)(O)O)[C@H]1OP(=O)(O)O [IP 1, 2, 3, 4, 5, 6, inositol hexaphosphate]	–	–	Cleavage activity (initiator activity) amongst the tested inositol phosphates (TcdB10463 [2]): strongest cleavage activity; Cleavage of the holotoxin into 63 kDa and 207 kDa fragments (TcdB10463 [2]): complete cleavage
Preparation D: TcdB fragment AS1508-1601 (part of the inosine-binding motif) (protein, UniProt P18177 1508-1601, looked up, fragment) YYSNNLKDVKVITKDNVNILTGYYLKDDIKISLSLTLQDEKTIKLNSVHLDESGVAEILKFMNRKGNTNTSDSLMSFLESMNIKSIFVNFLQSN	9 to 12 h	smaller neutralising effect	–
Preparation C: TcdB fragment AS1601-1716 (DSG motif) (protein, UniProt P18177 1601-1716, looked up, fragment) NIKFILDANFIISGTTSIGQFEFICDENDNIQPYFIKFNTLETNYTLYVGNRQNMIVEPNYDLDDSGDISSTVINFSQKYLYGIDSCVNKVVISPNIYTDEINITPVYETNNTYPE	12 to 15 h	smaller neutralising effect	–
